Experimental data reported in the NIST ThermoML archive (doi:10.1021/je060271a).

Settings: 283.15 K, Liquid, Vibrating tube method

CCCCCC(=O)OCC(COC(=O)CCCCC)(COC(=O)CCCCC)COC(=O)CCCCC [pentaerythritol tetrahexanoate]
Settings	mass density [kg/m3]
1506.3 kPa	1004.9
1520.4 kPa	1005.1
1534.6 kPa	1005.1
1551.6 kPa	1005.1
1566 kPa	1005.2
1580.3 kPa	1005
1737.7 kPa	1005.1
1752.5 kPa	1005.1
1815.1 kPa	1005.3
1862 kPa	1005.2
1876.2 kPa	1005.2
1889.8 kPa	1005.2
1905.4 kPa	1005.1
1918.9 kPa	1005.2
1932.5 kPa	1005.2
1949.3 kPa	1005.2
1963.5 kPa	1005.2
1978.6 kPa	1005.2
1993.5 kPa	1005.3
2005.3 kPa	1005.3
2024.6 kPa	1005.3
2039 kPa	1005.3
2053.8 kPa	1005.3
2068.7 kPa	1005.3
2086.4 kPa	1005.3
2102 kPa	1005.4
2118 kPa	1005.4
2136.7 kPa	1005.4
2153 kPa	1005.4
2165.7 kPa	1005.4
2185.6 kPa	1005.4
2205.4 kPa	1005.4
2292.8 kPa	1005.5
2303.8 kPa	1005.5
2314.9 kPa	1005.4
2328.2 kPa	1005.4
2339.2 kPa	1005.5
2350.1 kPa	1005.5
2363.3 kPa	1005.4
2374.2 kPa	1005.4
2385.1 kPa	1005.4
2398.1 kPa	1005.5
2409.2 kPa	1005.6
2420.2 kPa	1005.6
2433.2 kPa	1005.5
2443.9 kPa	1005.6
2455 kPa	1005.6
2468.4 kPa	1005.6
2479.7 kPa	1005.6
2490.8 kPa	1005.5
2502 kPa	1005.6
2515.9 kPa	1005.6
2526.8 kPa	1005.5
2552.3 kPa	1005.6
2576.1 kPa	1005.6
2587.9 kPa	1005.7
2601.9 kPa	1005.7
2613.9 kPa	1005.7
2626 kPa	1005.6
2640.3 kPa	1005.7
2652.7 kPa	1005.6
2664.9 kPa	1005.8
2679.3 kPa	1005.7
2692.1 kPa	1005.6
2704.8 kPa	1005.7
2717.4 kPa	1005.8
2732.7 kPa	1005.8
2745.7 kPa	1005.8
2756.3 kPa	1005.7
2768.9 kPa	1005.7
2784.7 kPa	1005.7
2800 kPa	1005.8
2826.3 kPa	1005.9
2841.9 kPa	1005.7
2869.2 kPa	1005.8
2883.2 kPa	1005.8
2897.6 kPa	1005.8
2911.3 kPa	1005.7
2927.9 kPa	1005.8
2942 kPa	1005.9
2956 kPa	1005.9
2973 kPa	1005.9
2987.2 kPa	1005.9
3001.4 kPa	1005.9
3015.3 kPa	1005.8
3032.1 kPa	1005.8
3046.9 kPa	1005.9
3061.4 kPa	1005.9
3079.7 kPa	1005.7
3094.3 kPa	1006
3108.7 kPa	1005.9
3123.8 kPa	1006
3141.8 kPa	1006
3157 kPa	1006
3172.3 kPa	1006
3187.9 kPa	1005.9
3203.2 kPa	1006
3221.5 kPa	1005.9
3236.8 kPa	1006.1
3337.6 kPa	1006.1
3353.6 kPa	1006.1
3404.7 kPa	1006.2
3956.5 kPa	1006.4
3974.5 kPa	1006.6
3996.3 kPa	1006.6
4014.4 kPa	1006.5
4032.7 kPa	1006.5
4054 kPa	1006.5
4072 kPa	1006.5
4090 kPa	1006.6
4111.5 kPa	1006.5
4129.7 kPa	1006.7
4147.7 kPa	1006.6
4165.7 kPa	1006.5
4186.7 kPa	1006.6
4204.2 kPa	1006.6
4221.8 kPa	1006.7
4239.5 kPa	1006.7
4260.6 kPa	1006.6
4277.8 kPa	1006.6
4294.9 kPa	1006.7
4314.8 kPa	1006.6
4331.6 kPa	1006.6
4348.2 kPa	1006.7
4364.2 kPa	1006.7
4383.5 kPa	1006.7
4399.6 kPa	1006.7
4414.7 kPa	1006.7
4432.7 kPa	1006.6
4448.3 kPa	1006.8
4462.4 kPa	1006.6
4476.2 kPa	1006.7
4489.5 kPa	1006.7
4504.9 kPa	1006.8
4517.6 kPa	1006.8
4530.4 kPa	1006.7
4542.7 kPa	1006.7
4556.9 kPa	1006.8
4568.3 kPa	1006.8
4579.5 kPa	1006.7
4590.6 kPa	1006.8
4604.1 kPa	1006.8
4613.3 kPa	1006.9
4626.1 kPa	1006.8
